Source: patent US20240246950A1, “Anilino-Pyrazole Derivatives, Compositions and Methods Thereof” (Ensem Therapeutics, priority 2022, published 2024)
Read-outs that look alike come from different tables or passages of the source.

Assays:
[1] = target: CDK2/CycA2 (Homo sapiens, UniProt P24941); experiment: In vitro kinase TR-FRET assay CDK2/CycA2; type: biochemical; conditions: enzyme 3 nM, ATP 27 μM, read-out: CDK2 cyclinA2 activity assay: IC50
Method: (§1) In vitro kinase TR-FRET assays: CDK2/CycA2, CDK2/CycE1, CDK1/cyclinB and GSK3β
(§2) The test compounds were prepared as 10 mM stock solution in 100% DMSO. The stock solution was then serially diluted 3-fold in 100% DMSO to 10 concentrations. 200 nL of each diluted compound solution was transferred to 384-well plate in duplicate. To each well, 5 uL of enzyme and ATP mixture solution containing enzyme CDK2/CycA2, CDK2/CycE1, CDK1/cyclinB, or GSK30 (final concentrations 3 nM, 0.6 nM, 0.3 nM, 0.6 nM, respectively) and ATP (final concentrations 27 μM, 82 μM, 56 μM, 7.6 μM, respectively) in the assay buffer (50 mM HEPES, pH7.5, 10 mM MgCl2, 1 mM DTT, 0.01% BSA, 0.01% Triton X-100). For negative control, 5 uL of assay buffer was added instead. The plate was incubated at room temperature for 10 min. 5 uL of peptide solution containing ULight-4E-BP1 peptide (final concentrations 50 nM) in the assay buffer was subsequently added into each well to initiate the reaction. By incubation at room temperature for 1 hour, 10 uL of 2 nM Eu-anti-phospho-4E BP1 antibody was then added for detection. After one hour incubation at room temperature, all samples were subjected to read the TR-FRET signal on Envision with excitation at 340 nm and emission fluorescence at 615 nm and 665 nm. IC50 values were then calculated by plotting dose-response curves and then using the XLfit application in Excel software.

[2] = tested on: TOV21G; experiment: Cell proliferation (CyQUANT) TOV21G; type: cell-based; conditions: 7 days, read-out: Anti-proliferation assay: IC50 (nM) [Cell Line: TOV21G]
Method: (§3) Cancer cell lines, namely, OVCAR3, TOV21G were seeded onto 96 well cell culture plates at a density of 2500, 1000 or 3000 cells/well, respectively and cultured overnight. Cells treated with test compounds at 3-fold dose titration for 7 days at maximum final DMSO concentration of 0.01%. The CyQUANT® Cell Proliferation Assay, a highly sensitive fluorescence-based method for quantifying cells and assessing cell proliferation and cytotoxicity was employed, following manufacturer's procedure (ThermnoFisher, Cataloge #C35012). Plates were scanned with a laser-based Acumen Cellistra instrument by TTP LabTech at Ex/Em 480/520 nm. % Inhibition is calculated based on DMSO control wells on the same plate (ie, DMSO wells have 100% growth and 0% growth inhibition).

[3] = target: GSK3β (Homo sapiens, UniProt P49841); experiment: In vitro kinase TR-FRET assay GSK3β; type: biochemical; conditions: enzyme 0.6 nM, ATP 7.6 μM
Sequence of GSK3β (P49841 whole entry, species assumed): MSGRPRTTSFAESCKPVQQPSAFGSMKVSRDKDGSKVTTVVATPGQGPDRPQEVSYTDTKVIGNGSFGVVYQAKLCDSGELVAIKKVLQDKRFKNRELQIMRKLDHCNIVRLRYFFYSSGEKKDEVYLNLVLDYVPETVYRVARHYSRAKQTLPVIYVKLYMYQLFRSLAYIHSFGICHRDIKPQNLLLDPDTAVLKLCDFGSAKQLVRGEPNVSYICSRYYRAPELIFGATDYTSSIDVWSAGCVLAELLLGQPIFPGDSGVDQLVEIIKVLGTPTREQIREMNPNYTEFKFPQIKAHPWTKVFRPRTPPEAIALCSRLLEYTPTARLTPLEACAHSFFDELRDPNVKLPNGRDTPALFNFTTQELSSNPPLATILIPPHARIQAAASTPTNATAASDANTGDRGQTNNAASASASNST
Method: as §1, §2

[4] = target: CDK1/cyclinB (Homo sapiens, UniProt P06493); experiment: In vitro kinase TR-FRET assay CDK1/cyclinB; type: biochemical; conditions: enzyme 0.3 nM, ATP 56 μM
Sequence of CDK1/cyclinB (P06493 whole entry): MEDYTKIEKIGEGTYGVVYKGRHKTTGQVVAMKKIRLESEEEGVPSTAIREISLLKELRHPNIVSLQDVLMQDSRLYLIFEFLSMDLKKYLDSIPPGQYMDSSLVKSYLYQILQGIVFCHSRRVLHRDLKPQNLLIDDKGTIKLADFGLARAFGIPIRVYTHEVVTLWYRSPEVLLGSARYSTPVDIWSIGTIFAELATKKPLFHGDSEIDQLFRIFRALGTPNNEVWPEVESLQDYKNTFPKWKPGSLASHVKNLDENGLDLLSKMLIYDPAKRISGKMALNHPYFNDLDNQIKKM
Sequence of CDK1/cyclinB (P14635 whole entry partner): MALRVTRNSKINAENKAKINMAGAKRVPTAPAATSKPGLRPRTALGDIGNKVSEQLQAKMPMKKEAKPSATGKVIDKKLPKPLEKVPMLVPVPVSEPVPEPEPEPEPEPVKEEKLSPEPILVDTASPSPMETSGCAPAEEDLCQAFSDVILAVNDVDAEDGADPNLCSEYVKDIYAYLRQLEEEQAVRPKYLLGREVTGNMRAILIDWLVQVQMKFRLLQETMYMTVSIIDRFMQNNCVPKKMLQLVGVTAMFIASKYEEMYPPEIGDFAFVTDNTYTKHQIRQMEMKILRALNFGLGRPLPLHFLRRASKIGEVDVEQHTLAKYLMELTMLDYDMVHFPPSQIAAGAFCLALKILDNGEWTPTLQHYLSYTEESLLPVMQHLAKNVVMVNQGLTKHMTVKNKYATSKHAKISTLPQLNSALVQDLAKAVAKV
Method: as §1, §2

[5] = tested on: OVCAR3; experiment: Cell proliferation (CyQUANT) OVCAR3; type: cell-based; conditions: OVCAR3, 7 days, read-out: Anti-proliferation assay: IC50 (nM) [Cell Line: OVCAR3]
Method: as §3

[6] = target: CDK2/CycE1 (Homo sapiens, UniProt P24941); experiment: In vitro kinase TR-FRET assay CDK2/CycE1; type: biochemical; conditions: enzyme 0.6 nM, ATP 82 μM, read-out: CDK2 cyclinE1 activity assay: IC50
Method: as §1, §2

Row | Structure (SMILES) | IC50 [1] [nM] | IC50 ([2]; Homo sapiens, 168 h) [nM] | IC50 [3] [nM] | IC50 [4] [nM] | IC50 ([5]; Homo sapiens, OVCAR-3, 168 h) [nM] | IC50 [6] [nM] | IC50 [2] [nM] | IC50 [5] [nM]
1 | CC(C)NC(=O)OC1CCC(c2cc(Nc3ccc4c(c3)CN(C)S4(=O)=O)[nH]n2)C1 (racemic) [Example 23, 3-(5-((2-methyl-1,1-dioxido-2,3-dihydrobenzo[d]isothiazol-5-yl)amino)-1H-pyrazol-3-yl)cyclopentyl isopropylcarbamate] | < 50 | ≥ 1000 | 50 to 500 | 50 to 500 | ≤ 500 | < 50 |  | 
2 | CC(C)NC(=O)O[C@@H]1CC[C@H](c2cc(Nc3ccc4c(c3)C(=O)NC4=O)n[nH]2)C1 [Example 4, (1R,3S)-3-(3-((1,3-dioxoisoindolin-5-yl)amino)-1H-pyrazol-5-yl)cyclopentyl isopropylcarbamate] | < 50 | ≥ 1000 | 50 to 500 | 50 to 500 | 500 to 1000 | < 50 |  | 
3 | CC(C)NC(=O)O[C@@H]1CC[C@H](c2cc(Nc3ccc4c(c3)C(=O)NS4(=O)=O)[nH]n2)C1 [Example 5, (1R,3S)-3-(5-((1,1-dioxido-3-oxo-2,3-dihydrobenzo[d]isothiazol-5-yl)amino)-1H-pyrazol-3-yl)cyclopentyl isopropylcarbamate] | < 50 | ≥ 1000 | 500 to 1000 | > 1000 | ≥ 1000 | < 50 |  | 
4 | CC(C)NC(=O)O[C@@H]1CC[C@H](c2cc(Nc3ccc4c(c3)OCCNS4(=O)=O)n[nH]2)C1 [Example 6, (1R,3S)-3-(3-((1,1-dioxido-3,4-dihydro-2H-benzo[b][1,4,5]oxathiazepin-7-yl)amino)-1H-pyrazol-5-yl)cyclopentyl isopropylcarbamate] | < 50 | ≥ 1000 | 50 to 500 | 50 to 500 | ≤ 500 | < 50 |  | 
5 | CC(C)NC(=O)O[C@H]1CC[C@@H](c2cc(Nc3ccc4c(c3)CNS4(=O)=O)n[nH]2)CC1 [Example 7, (1s,4s)-4-{3-[(1,1-dioxo-2,3-dihydro-1λ^6,2-benzothiazol-5-yl)amino]-1H-pyrazol-5-yl}cyclohexyl N-(propan-2-yl)carbamate] | < 50 |  | > 1000 | 50 to 500 |  | < 50 | ≥ 1000 | ≤ 500
6 | CC(C)NC(=O)O[C@@H]1CC[C@H](c2cc(Nc3ccc4c(c3)CNC4=O)n[nH]2)C1 [Example 8, (1R,3S)-3-(3-((1-oxoisoindolin-5-yl)amino)-1H-pyrazol-5-yl)cyclopentyl isopropylcarbamate] | < 50 | ≥ 1000 | 500 to 1000 | 500 to 1000 | ≥ 1000 | < 50 |  | 
7 | CC(C)NC(=O)O[C@@H]1CC[C@H](c2cc(Nc3ccc4c(c3)CCS4(=O)=O)n[nH]2)C1 [Example 9, (1R,3S)-3-(3-((1,1-dioxido-2,3-dihydrobenzo[b]thiophen-5-yl)amino)-1H-pyrazol-5-yl)cyclopentyl isopropylcarbamate] | < 50 | ≥ 1000 | 50 to 500 | 50 to 500 | ≤ 500 | < 50 |  | 
8 | CC(C)NC(=O)O[C@@H]1CC[C@H](c2cc(Nc3ccc4c(c3)C(C)NS4(=O)=O)[nH]n2)C1 (stereo partly drawn) [Example 10, (1R,3S)-3-(5-((3-methyl-1,1-dioxido-2,3-dihydrobenzo[d]isothiazol-5-yl)amino)-1H-pyrazol-3-yl)cyclopentyl isopropylcarbamate] | < 50 | ≥ 1000 | 50 to 500 | < 50 | ≤ 500 | < 50 |  | 
9 | CC(C)NC(=O)O[C@H]1CC[C@@H](c2cc(Nc3ccc4c(c3)CCNS4(=O)=O)n[nH]2)CC1 [Example 11, (1s,4s)-4-{3-[(1,1-dioxo-3,4-dihydro-2H-1λ^6,2-benzothiazin-6-yl)amino]-1H-pyrazol-5-yl}cyclohexyl N-(propan-2-yl)carbamate] | < 50 | ≥ 1000 | > 1000 | < 50 | ≤ 500 | < 50 |  | 
